Measurements published in US8247211B2, “Glycopeptide antibiotics” (American Cyanamid Company, priority 2001, dated 2012).

Experiments:
Experiment in all cases: In vitro antibacterial evaluation: minimum inhibitory concentration (MIC), broth dilution method
Type in all cases: cell-based
Streptococcus sp. = conditions: 18 hours at 35° C.
In short: (§1)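 MIC read as lowest drug level preventing visible growth. Organisms at 5×10^5 CFU/mL were exposed to a 64-0.06 μg/mL dilution series in Muller-Hinton II […] following NCCLS broth dilution standard M7-A2.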

Escherichia coli = conditions: 18 hours at 35° C.
In short: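 Values are minimum inhibitory concentrations, meaning the smallest antibiotic concentration that stops growth of the organism. They come from broth dilution in Muller-Hinton II […] per NCCLS guidance (M7-A2), using 5×10^5 CFU/mL and concentrations from 64 to 0.06 μg/mL.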

Staphylococcus sp. = system: Staphylococcus sp.
In short: as §1

Enterococcus sp. = conditions: 18 hours at 35° C.
In short: as §1

[1] = Streptococcus agalactiae (GC 4564)
[2] = Streptococcus pneumoniae (ATCC 6301)
[3] = Streptococcus pneumoniae (GC 1894)
[4] = Streptococcus pneumoniae (GC 4565)
[5] = Streptococcus pyogenes (GC 4563)
[6] = broth dilution, inoculum 5×10^5 CFU/mL
[7] = Enterococcus faecalis (ATCC 29212)
[8] = Enterococcus faecalis (GC 2242)
[9] = Enterococcus faecalis (GC 2691)
[10] = Enterococcus faecalis (GC 3059)
[11] = Enterococcus faecalis (GC 4552)
[12] = Enterococcus faecalis (GC 4553)
[13] = Enterococcus faecalis (GC 4554)
[14] = Enterococcus faecalis (GC 6189)

CCOc1cc(COCC2OC(OC3C(CO)OC(Oc4ccc(CC5NC(=O)C(C(C)c6ccccc6)NC(=O)CNC(=O)C(CO)NC(=O)C(C(O)C6CNC(=N)N6C6OC(CO)C(O)C(O)C6O)NC(=O)C(C(O)C6CNC(=N)N6)NC5=O)cc4)C(O)C3O)C(O)C(O)C2O)ccc1OC (centres unmarked) [Example 238]
1 µg/mL: MIC Streptococcus pneumoniae (ATCC 6301) (Streptococcus sp.; [2]) | MIC Streptococcus pneumoniae (GC 4565) (Streptococcus sp.; [4]) | MIC Streptococcus pyogenes (GC 4563) (Streptococcus sp.; [5]) | MIC Streptococcus pneumoniae (ATCC 6301) (Streptococcus sp.; [6]) | MIC Streptococcus pneumoniae (GC 4565) (Streptococcus sp.; [6]) | MIC Streptococcus pyogenes (GC 4563) (Streptococcus sp.; [6]) | MIC Coagulase Negative Staphylococcus (GC 6257) (Staphylococcus sp.; Coagulase Negative Staphylococcus (GC 6257), 18 hours at 35° C.)
>64 µg/mL: MIC Escherichia coli (ATCC 25922) (Escherichia coli) | MIC Escherichia coli (GC 4559) (Escherichia coli)
0.5 µg/mL: MIC Streptococcus pneumoniae (GC 1894) (Streptococcus sp.; [3]) | MIC Streptococcus pneumoniae (GC 1894) (Streptococcus sp.; [6])
4 µg/mL: MIC Coagulase Negative Staphylococcus (GC 4551) (Staphylococcus sp.; Coagulase Negative Staphylococcus (GC 4551), 18 hours at 35° C.) | MIC Staphylococcus aureus (ATCC 29213) (Staphylococcus sp.; Staphylococcus aureus (ATCC 29213), 18 hours at 35° C.) | MIC Staphylococcus aureus (GC 1131) (Staphylococcus sp.; Staphylococcus aureus (GC 1131), 18 hours at 35° C.) | MIC Staphylococcus aureus (GC 3051) (Staphylococcus sp.; Staphylococcus aureus (GC 3051), 18 hours at 35° C.) | MIC Staphylococcus aureus (GC 4541) (Staphylococcus sp.; Staphylococcus aureus (GC 4541), 18 hours at 35° C.) | MIC Staphylococcus aureus (GC 4542) (Staphylococcus sp.; Staphylococcus aureus (GC 4542), 18 hours at 35° C.) | MIC Staphylococcus aureus-SMITH (GC 4543) (Staphylococcus sp.; Staphylococcus aureus-SMITH (GC 4543), 18 hours at 35° C.) | MIC Enterococcus faecium (GC 4557) (Enterococcus sp.; Enterococcus faecium (GC 4557))
2 µg/mL: MIC Streptococcus agalactiae (GC 4564) (Streptococcus sp.; [1]) | MIC Streptococcus agalactiae (GC 4564) (Streptococcus sp.; [6]) | MIC Escherichia coli (GC 4560) (Escherichia coli) | MIC Coagulase Negative Staphylococcus (GC 4547) (Staphylococcus sp.; Coagulase Negative Staphylococcus (GC 4547), 18 hours at 35° C.) | MIC Coagulase Negative Staphylococcus (GC 4548) (Staphylococcus sp.; Coagulase Negative Staphylococcus (GC 4548), 18 hours at 35° C.) | MIC Coagulase Negative Staphylococcus (GC 4549) (Staphylococcus sp.; Coagulase Negative Staphylococcus (GC 4549), 18 hours at 35° C.) | MIC Staphylococcus aureus (GC 4545) (Staphylococcus sp.; Staphylococcus aureus (GC 4545), 18 hours at 35° C.) | MIC Staphylococcus haemolyticus (GC 4546) (Staphylococcus sp.; Staphylococcus haemolyticus (GC 4546), 18 hours at 35° C.)
8 µg/mL: MIC Staphylococcus aureus (GC 3053) (Staphylococcus sp.; Staphylococcus aureus (GC 3053), 18 hours at 35° C.) | MIC Staphylococcus aureus (GC 4544) (Staphylococcus sp.; Staphylococcus aureus (GC 4544), 18 hours at 35° C.)
16 µg/mL: MIC Enterococcus avium (GC 4558) (Enterococcus sp.; Enterococcus avium (GC 4558)) | MIC Enterococcus faecalis (ATCC 29212) (Enterococcus sp.; [7]) | MIC Enterococcus faecalis (GC 2242) (Enterococcus sp.; [8]) | MIC Enterococcus faecalis (GC 2691) (Enterococcus sp.; [9]) | MIC Enterococcus faecalis (GC 6189) (Enterococcus sp.; [14]) | MIC Enterococcus faecium (GC 2243) (Enterococcus sp.; Enterococcus faecium (GC 2243)) | MIC Enterococcus faecalis (GC 2242) (Enterococcus sp.; [6]) | MIC Enterococcus faecalis (GC 2691) (Enterococcus sp.; [6])
32 µg/mL: MIC Enterococcus faecalis (GC 3059) (Enterococcus sp.; [10]) | MIC Enterococcus faecalis (GC 4552) (Enterococcus sp.; [11]) | MIC Enterococcus faecalis (GC 4553) (Enterococcus sp.; [12]) | MIC Enterococcus faecalis (GC 4554) (Enterococcus sp.; [13]) | MIC Enterococcus faecium (GC 4556) (Enterococcus sp.; Enterococcus faecium (GC 4556)) | MIC Enterococcus faecalis (GC 3059) (Enterococcus sp.; [6])

CC(C)CC(=O)OC1C(O)C(OC2C(CO)OC(Oc3ccc(CC4NC(=O)C(C(C)c5ccccc5)NC(=O)CNC(=O)C(CO)NC(=O)C(C(O)C5CNC(=N)N5C5OC(CO)C(O)C(O)C5O)NC(=O)C(C(O)C5CNC(=N)N5)NC4=O)cc3)C(O)C2O)OC2COC3(OC21)C1CC2CC(C1)CC3C2 (stereo not drawn) [Example 218, Cyclo[glycyl-β-methylphenylalanyl-O-[4-O-[4,6-O-(2-adamantylidene)-3-O-(3-methyl-butanoyl)-hexopyranosyl]hexopyranosyl]tyrosyl-3-(2-iminoimidazolidin-4-yl)-seryl-3-(3-hexopyranosyl-2-iminoimidazolidin-4-yl)serylseryl]]
<0.06 µg/mL: MIC Streptococcus pneumoniae (GC 1894) (Streptococcus sp.; [3]) | MIC Streptococcus pneumoniae (GC 1894) (Streptococcus sp.; [6])
0.5 µg/mL: MIC Streptococcus pyogenes (GC 4563) (Streptococcus sp.; [5]) | MIC Streptococcus pyogenes (GC 4563) (Streptococcus sp.; [6])
>64 µg/mL: MIC Escherichia coli (GC 4559) (Escherichia coli)
0.12 µg/mL: MIC Streptococcus pneumoniae (ATCC 6301) (Streptococcus sp.; [2]) | MIC Streptococcus pneumoniae (GC 4565) (Streptococcus sp.; [4]) | MIC Streptococcus pneumoniae (ATCC 6301) (Streptococcus sp.; [6]) | MIC Streptococcus pneumoniae (GC 4565) (Streptococcus sp.; [6])
4 µg/mL: MIC Staphylococcus aureus (ATCC 29213) (Staphylococcus sp.; strain ATCC 29213) | MIC Staphylococcus aureus (GC 1131) (Staphylococcus sp.; strain GC 1131) | MIC Staphylococcus aureus (GC 3051) (Staphylococcus sp.; strain GC 3051) | MIC Staphylococcus aureus (GC 3053) (Staphylococcus sp.; strain GC 3053) | MIC Staphylococcus aureus (GC 4541) (Staphylococcus sp.; strain GC 4541) | MIC Staphylococcus aureus (GC 4542) (Staphylococcus sp.; strain GC 4542) | MIC Staphylococcus aureus-SMITH (GC 4543) (Staphylococcus sp.; strain GC 4543) | MIC Staphylococcus aureus (GC 4544) (Staphylococcus sp.; strain GC 4544) | MIC Staphylococcus aureus (GC 4545) (Staphylococcus sp.; strain GC 4545) | MIC Staphylococcus haemolyticus (GC 4546) (Staphylococcus sp.; strain GC 4546) | MIC Coagulase Negative Staphylococcus (GC 4547) (Staphylococcus sp.; strain GC 4547) | MIC Coagulase Negative Staphylococcus (GC 4548) (Staphylococcus sp.; strain GC 4548) | MIC Coagulase Negative Staphylococcus (GC 4549) (Staphylococcus sp.; strain GC 4549) | MIC Coagulase Negative Staphylococcus (GC 6257) (Staphylococcus sp.; strain GC 6257) | MIC Enterococcus avium (GC 4558) (Enterococcus sp.; Enterococcus avium (GC 4558)) | MIC Enterococcus faecalis (ATCC 29212) (Enterococcus sp.; [7]) | MIC Enterococcus faecalis (GC 2242) (Enterococcus sp.; [8]) | MIC Enterococcus faecalis (GC 2691) (Enterococcus sp.; [9]) | MIC Enterococcus faecalis (GC 3059) (Enterococcus sp.; [10]) | MIC Enterococcus faecalis (GC 4552) (Enterococcus sp.; [11]) | MIC Enterococcus faecalis (GC 4553) (Enterococcus sp.; [12]) | MIC Enterococcus faecalis (GC 4554) (Enterococcus sp.; [13]) | MIC Enterococcus faecalis (GC 6189) (Enterococcus sp.; [14]) | MIC Enterococcus faecium (GC 2243) (Enterococcus sp.; Enterococcus faecium (GC 2243)) | MIC Enterococcus faecium (GC 4556) (Enterococcus sp.; Enterococcus faecium (GC 4556)) | MIC Enterococcus faecium (GC 4557) (Enterococcus sp.; Enterococcus faecium (GC 4557)) | MIC Enterococcus avium (GC 4558) (Enterococcus sp.; [6]) | MIC Enterococcus faecalis (ATCC 29212) (Enterococcus sp.; [6]) | MIC Enterococcus faecalis (GC 2242) (Enterococcus sp.; [6]) | MIC Enterococcus faecalis (GC 2691) (Enterococcus sp.; [6]) | MIC Enterococcus faecalis (GC 3059) (Enterococcus sp.; [6]) | MIC Enterococcus faecalis (GC 4552) (Enterococcus sp.; [6]) | MIC Enterococcus faecalis (GC 4553) (Enterococcus sp.; [6]) | MIC Enterococcus faecalis (GC 4554) (Enterococcus sp.; [6]) | MIC Enterococcus faecalis (GC 6189) (Enterococcus sp.; [6]) | MIC Enterococcus faecium (GC 2243) (Enterococcus sp.; [6]) | MIC Enterococcus faecium (GC 4556) (Enterococcus sp.; [6]) | MIC Enterococcus faecium (GC 4557) (Enterococcus sp.; [6])
0.25 µg/mL: MIC Streptococcus agalactiae (GC 4564) (Streptococcus sp.; [1]) | MIC Streptococcus agalactiae (GC 4564) (Streptococcus sp.; [6])
64 µg/mL: MIC Escherichia coli (ATCC 25922) (Escherichia coli)
8 µg/mL: MIC Escherichia coli (GC 4560) (Escherichia coli) | MIC Coagulase Negative Staphylococcus (GC 4551) (Staphylococcus sp.; strain GC 4551)
